Key:
Assay type in all cases: in vivo, human
[1] = tested on: post-menopausal women with heart failure; assay: six minute walking test (6MWT), exercise tolerance; conditions: for 6MWT distance walked: 300 mcg/day transdermal patch
Procedure: (§1) Thirty-two (32) patients enrolled in the trial. […] Testosterone was administered to the patients as Intrinsa, which is available in Europe.
(§2) The clinical trial design involved: (A) evaluation of inclusion/exclusion criteria and study agreement; (B) visit (blood pressure, heart rate and NYHA classification); (C) six minute walking test, endothelial function, ergospirometry (when possible), muscle strength (isometric and isokinetic) and blood samples; and then (D) randomization to testosterone or placebo. The following follow-ups were conducted: six weeks (B); twelve weeks (B+C); 18 weeks (B); and 24 weeks (B+C).
In the 6MWT, each patient started by standing at a known beginning location point. Each patient then walked as much as possible within a 6-minute timeframe. At the end of the 6-minute timeframe, the ending location of each patient was identified. The distance each patient walked was calculated by measuring (in meters) the distance between the beginning and end points for each patient.

[2] = tested on: post-menopausal women with heart failure; assay: maximal oxygen consumption (MVO2) by ergospirometry
Procedure: Thirty-two (32) patients enrolled in the trial.
The following follow-ups were conducted: six weeks (B); twelve weeks (B+C); 18 weeks (B); and 24 weeks (B+C).
Maximal oxygen consumption (“MVO2;” also “VO2 max”) is the maximum volume of oxygen that the body can consume during intense, whole-body exercise, while breathing air at sea level. This volume is expressed as a rate, which is in ml/kg/min. As oxygen consumption is linearly related to energy expenditure, the measurement of oxygen consumption is an indirect measurement of an individual's maximal capacity to do work aerobically.

[3] = tested on: post-menopausal women with heart failure; assay: muscle isometric strength, maximal voluntary contraction (MVC)
Procedure: as §1, §2
Isometric strength was the highest force developed by patients in three, 5-second maximal voluntary contractions (“MVC”) separated by 1 minute of rest. The knee angle was fixed at 80° (full extension considered 0°). Results are reported at Tables 9-10 and FIGS. 8-10.

[4] = tested on: post-menopausal women with heart failure; assay: muscle isokinetic strength, peak torque
Procedure: as §1, §2
Isokinetic strength was assessed by evaluating the highest peak torque achieved in a five maximal repetition test of concentric knee extension/flexion performed at 90 degree/sec. The range of motion was 50°. Results are reported at Tables 11-12 and FIGS. 11-13.

[5] = tested on: post-menopausal women with heart failure; assay: NYHA classification improvement
Procedure: as §1, §2
NYHA Classification was determined for each individual at three months and at six months of treatment.

[6] = tested on: post-menopausal women with heart failure; assay: high-density lipoprotein (HDL) measurement
Procedure: as §1, §2
High-density lipoprotein (“HDL”) was measured.

[7] = tested on: post-menopausal women with heart failure; assay: drop-outs and adverse events during the clinical study; conditions: testosterone group of 20 patients
Procedure: as §1
During the clinical study, two patients dropped out of the testosterone group, and one patient dropped out of the placebo group. […] The patient who dropped out of the placebo group was a no-show at the 6-week meeting and was reported to have stopped the treatment. Of the testosterone group, six patients referred mild skin irritation at the patch site and continued therapy. Of the placebo group, two patients referred mild skin irritation at the patch site and continued therapy. […] These two patients continued the testosterone treatment. Two patients in the placebo group had worsening heart failure that required hospital admission (one patient had one episode of worsening heart failure; the other patient had two episodes of worsening heart failure). These two patients continued with the patch.

SMILES: C[C@]12CC[C@H]3[C@@H](CCC4=CC(=O)CC[C@@]43C)[C@@H]1CC[C@@H]2O [Testosterone, testosterone]
- 6MWT percent change from baseline ([1]; 3 months): 35.7% change
- 6MWT change in distance walked ([1]; 3 months vs baseline): 93 Δ m
- 6MWT distance walked ([1]; 3 months): 353 m
- 6MWT percent change from baseline ([1]; 6 months): 39.2% change
- 6MWT change in distance walked ([1]; 6 months vs baseline): 102 Δ m
- 6MWT distance walked ([1]; 6 months): 362 m
- 6MWT distance walked ([1]; baseline, testosterone group): 260 m
- MVO2 percent change from baseline ([2]; 3 months): 21% change
- MVO2 percent change from baseline ([2]; 6 months): 28% change
- MVO2 percent change from baseline ([2]; 6 months, listed as testosterone): over 25 % change
- maximal oxygen consumption peak (MVO2) ([2]; baseline, testosterone group): 10.54 mL/min/kg
- MVC percent change from baseline ([3]; 3 months): 37.8% change
- isometric strength, maximal voluntary contraction (MVC) ([3]; 3 months): 89.4 N
- MVC percent change from baseline ([3]; 6 months): 47.6% change
- isometric strength, maximal voluntary contraction (MVC) ([3]; 6 months): 95.7 N
- isometric strength, maximal voluntary contraction (MVC) ([3]; baseline, testosterone group): 64.85 N
- isokinetic strength, peak torque ([4]; 3 months): 58.85 N/m
- peak torque percent change from baseline ([4]; 3 months): 42.32% change
- isokinetic strength, peak torque ([4]; 6 months): 63.82 N/m
- peak torque percent change from baseline ([4]; 6 months): 54.34% change
- isokinetic strength, peak torque ([4]; baseline, testosterone group): 41.35 N/m
- Percent of patients with improvement of NYHA Class and/or improvement of >15% 6 MWT (% Response) ([5]; 6 months): 80%
- Percent change in NYHA Class of patients: NYHA 0 ([5]; during 6 months of treatment): 50%
- Percent change in NYHA Class of patients: NYHA + 1 ([5]; during 6 months of treatment): 11%
- Percent change in NYHA Class of patients: NYHA − 1 ([5]; during 6 months of treatment): 38.8%
- HDL Percent Changes ([6]; 3 months): 19%
- HDL level ([6]; 3 months): 43.24 mg/dL
- HDL Percent Changes ([6]; 6 months): 25%
- HDL level ([6]; 6 months): 43.15 mg/dL
- HDL level ([6]; baseline, testosterone group): 36.9 mg/dL
- patients who dropped out [7]: two
- patients with generalized prurigo (without lesions on the skin), discontinued treatment after 3 weeks [7]: one
- patients with mild skin irritation at the patch site, continued therapy [7]: six
- patients with one episode of worsening of heart failure requiring hospital admission ([7]; during the follow-up): Two
